In patent US7208162B2, “Combination therapy of respiratory diseases using antibodies and anti-inflammatory agents” (priority 2000, dated 2007):

How the values were obtained:
[1] = tested on: Respiratory Syncytial Virus; details: systemically administered; 147 infants; cited from earlier work
[2] = cited from earlier work
RSV [3] = details: aerosol inhalation; versus untreated patients; cited from earlier work
[4] = tested on: respiratory syncytial virus (RSV/Long); assay: Example 1: antibody/triamcinolone therapy of RSV-infected cotton rats (virus titer, pulmonary pathology); type: in vivo; details: treatment i.m. beginning 3 days post-infection; antibody 15 mg/kg, triamcinolone 1-16 mg/kg; lungs days 4 and 6
Experimental: The following procedure was performed using inbred cotton rats (Sigmodon hispidus). On day 0, young adult cotton rats were divided into 9 groups of 12 animals each (total: 108 animals). Identification of each group in terms of treatment was as follows:
In each case (Groups B–I), approximately 10^6.5 plaque forming units (pfu) of respiratory syncytial virus (RSV/Long) was administered intranasally in a volume of 100 μl.
On day 3, treatment began as described above for each of the groups. The animals were each weighed and treated according to the indicated regimen. All antibody and steroid administration was intramuscular (i.e., systemic) and both antibody and steroid were administered together. Antibody was palivizumab wherein 15 mg/kg was the dose used in each case. All dosages are given as mg per kg of body weight.
On day 4, six animals from each group were sacrificed, their lungs bisected, with half being homogenized for viral quantitation and the other half being inflated with formalin for histological examination. The remaining six animals in each of groups D through I were treated with the dose of triamcinolone indicated above but no additional antibody was given.
On day 5, the remaining six animals in each group were treated again as described for day 4 (again with no additional antibody).
On day 6, the remaining 6 animals from each group were sacrificed and data collected as described for day 4. Thus, their lungs were bisected, with half being homogenized for viral quantitation and the other half being inflated with formalin for histological examination.
Results of these experiments are shown graphically in FIGS. 2(a through e).
This experiment was duplicated on a separate population of 108 cotton rats divided into groups and treated as just described with similar results reported in FIG. 3 (FIG. 3(a) showing virus titer and FIG. 3(b) showing composite pathology score). The conclusions herein are the result of data from both experiments. The results for composite pathology scores are shown in FIG. 1 reflecting the results of both sets of experiments.

RSV [5] = assay: Example 5: lung pathology score (0 to 100) on day 6 after MAb and glucocorticoid therapy; type: in vivo, cotton rats
Experimental: Twenty eight (28) cotton rats (CRs) were infected intranasally with 6.5 logs of RSV (as 0.1 ml of inoculum), leading to dramatic lung pathology 6 days post-infection (PI). On day 3 PI (the peak for viral infection), 7 groups of 4 animals received one of the following: no therapy, or intramuscular (i.m.) MAb (15 mg/kg) (MAb=palivizumab) i.m. triamcinolone (TRI;Steris Laboratories, Phoenix, Ariz.) at 16 mg/kg and MAb; i.p. methylprednisolone (MED; Solu-Medrol® Pharmacia and Upjohn, Kalamazoo, Mich.) 4 mg/kg and MAb; i.p. MED at 8 mg/kg and MAb; i.p. dexamethasone (DEX; Elkins-Sinn, Cherry Hill, N.J.) 0.6 mg/kg and MAb; or i.p. DEX 1.2 mg/kg and MAb (TRI and DEX once daily, MED divided into every 6 hours). All glucocorticoids were repeated on days 4 and 5. The dose, frequency and route of administration of dexamethasone and methylprednisolone were extrapolated from human use recommendations.
On day 6, all groups (including 4 uninfected CRs were sacrificed (in general by carbon dioxide asphyxiation). For pathology, tissues were inflated and formalin fixed and coronal paraffin sections were cut at 4 μm thickness. Lung tissue slides scored on a 0 (normal) to 100 (marked pathology) severity scale, for bronchiolitis, alveolitis, and interstitial pneumonia.
Results are shown graphically in FIG. 7A and summarized as follows in terms of pathology score (0 to 100).

[6] = tested on: respiratory syncytial virus (RSV/Long); assay: Example 3: different steroids with the same antibody in RSV pneumonia, arithmetic mean pathology scores; type: in vivo; details: 8 mg/kg/day i.p. days 3-5 plus antibody 15 mg/kg day 3; day 6
Experimental: The following procedure was performed using inbred cotton rats (Sigmodon hispidus). On day 0, young adult cotton rats were divided into 8 groups of 4 animals each (total: 32 animals). Identification of each group in terms of treatment was as follows:
In each case (Groups B–H), approximately 10^6.5 plaque forming units (pfu) of respiratory syncytial virus (RSV/Long) was administered intranasally in a volume of 100 μl.
On day 3, treatment began as described above for each of the groups. The animals were each weighed and treated according to the indicated regimen. Antibody was palivizumab wherein 15 mg/kg was the dose used in each case. All dosages are given as mg per kg of body weight.
On day 4, animals in groups D through H were treated as described for day 3 but no additional antibody was given.
On day 5, animals in groups D through H were treated as on […] (again with no additional antibody).
On day 6, all animals were sacrificed. Lungs from all of the animals were inflated with formalin for histological examination.

[7] = MAb 15 mg/kg i.m. day 3, TRI 16 mg/kg i.m. days 3-5

C[C@]12C=CC(=O)C=C1CC[C@@H]1[C@@H]2[C@@H](O)C[C@@]2(C)[C@H]1CC[C@]2(O)C(=O)CO [prednisolone]
effectiveness in infant RSV [1]: ineffectiveness

NC(=O)c1ncn([C@@H]2O[C@H](CO)[C@@H](O)[C@H]2O)n1 [ribavirin]
bioavailability ([2]; given orally): about 45%
time of peak concentrations in plasma ([2]; in vivo, po): 1 to 2 h
level of secondary infection following cessation of treatment (RSV [3]): significantly higher than in untreated patients

C[C@]12C=CC(=O)C=C1CC[C@H]1[C@@H]3C[C@@H](O)[C@](O)(C(=O)CO)[C@@]3(C)C[C@H](O)[C@@]12F [triamcinolone]
pulmonary pathology [4]: positive effect on pulmonary pathology
viral clearance (RSV titer in lungs) [4]: retarded viral clearance

palivizumab: anti-RSV IgG monoclonal antibody, commercially palivizumab, sequence described as Medi-493 (U.S. Pat. No. 5,824,307 FIGS. 7 and 8)
pulmonary pathology [4]: no significant effect on pulmonary pathology
viral clearance (RSV titer in lungs) [4]: accelerated viral clearance
pathology (summary of Table 1) (RSV [5]): did not reduce pathology
Alveolitis pathology score (0 to 100) (RSV [5]; [7]): 38
Bronchiolitis pathology score (0 to 100) (RSV [5]; [7]): 75
Interstitial Pneumonia pathology score (0 to 100) (RSV [5]; [7]): 49
lung tissue histology (inflammatory infiltrates) (RSV [5]; palivizumab day 3, methylprednisolone days 3, 4 and 5, hematoxylin and eosin, 64X): Little or no improvement

C[C@H]1C[C@@H]2[C@H]([C@@H](O)C[C@@]3(C)[C@H]2CC[C@]3(O)C(=O)COC(=O)CCC(=O)[O-])[C@@]2(C)C=CC(=O)C=C12.[Na+] [solumedrol]
pulmonary pathology (arithmetic mean pathology scores) compared with triamcinolone [6]: worked almost as well as triamcinolone
